Columns and labels:
Format in all cases: in vivo, rat
TNF-α and RANKL = test: Serum immunoassays of TNF-α and RANKL in treated MPS VI rats; details: MPS VI rats treated 8 months i.v., end of study (37 weeks), vs untreated MPS VI
Method: Naglazyme® (recombinant human N-acetylgalactosamine-4-sulfatase) was obtained from the BioMarin Pharmaceutical Inc., and CNTO1081 was from Centocor Ortho Biotech Inc. Twenty one-day-old (pre-symptomatic) MPS VI rats were divided into two groups (n=8/group), and subjected to either ERT or combined ERT/anti-TNF-α therapy. Animals receiving ERT alone were injected i.v. (tail vein) weekly with 1 mg/kg of Naglazyme®. Those receiving combined therapy also were injected i.v. with 3 mg/kg of CNTO10181 twice per week (every third day). Treatment was carried out for a total of 32 weeks. Serum was collected every 2 weeks for TNF-α and RANKL analysis (see infra). For each group, the treated animals were sacrificed 2 weeks after the last injection (37 weeks of age). Age-matched normal and untreated MPS VI rats were used as controls throughout the study.
Serum TNF-α and RANKL in age-matched normal, untreated and treated MPS VI rats were assessed by immunoassays using rat ultrasensitive Biosource Elisa kits (Invitrogen and ALPCO Diagnostics) according to the manufacturers' protocols. All assays were performed in triplicate.
Twenty one-day-old MPS VI rats were treated by either ERT (1 mg/kg once per week), or by a combined protocol of ERT and anti-TNF-α therapy (3 mg/kg, twice per week). Both were administered intravenously (tail vein). […]

MPS VI rats [1] = test: Accelerating rotarod (locomotor function), MPS VI rats, ERT and combined treatment; details: 10 RPM, maximum time 180 seconds; untreated MPS VI mean 70 seconds
Source text: Age-matched 37-week-old normal and untreated MPS VI and treated MPS VI rats were placed on an accelerating Rotarod series 8 (IITC Life Science) for evaluation as described previously (Cotugno et al., “Different Serum Enzyme Levels are Required to Rescue the Various Systemic Features of the Mucopolysaccharidoses,” Hum. Gene Ther. 21:555-69 (2010), which is hereby incorporated by reference in its entirety). Animals were primed on the rod for two consecutive days prior to the actual recording. The rotarod was set at increasing speeds from 10 to 30 rpm over 3 minutes, and an average of the latency to fall off from the rod was recorded. Results were analyzed by one-way analysis of variance (ANOVA) with the variable group.

MPS VI rats [2] = test: Gait (motility) analysis from paw prints, MPS VI rats
Method: The fore and hind paws of treated and control animals were stained with two different colors using non-toxic dye. The rats were trained to walk through a tunnel for two consecutive days, leaving their paw prints on blotting paper. On the third day several parameters were measured; distance between the left and right front paws in the longitudinal direction, the angle that was formed, and the distance between the front and hind right paws. For statistical analysis, group differences were assessed using multivariate analyses of variance (MANOVAs), followed by post hoc Bonferroni adjustments for all time points tested.

MPS VI rats [3] = test: MicroCT analysis of bone micro-architecture (trabecular, cortical, robustness), MPS VI rats; details: mid-diaphyseal femur, vs untreated; fell short of statistical significance
Method: Three-dimensional images of the 37-week-old femora from age-matched normal, untreated and treated MPS VI rats were obtained using the eXplore Locus SP PreClinical Specimen microCT system (GE Healthcare; London, Ontario, Canada). Scans were performed at a voxel size of 14.4 μm. The scan protocol consisted of 3600 image acquisitions over a five hour scan (acquisition parameters: 80 kVp, 80 uA, 3 second exposure time [˜690], 0.010″ aluminum beam filter). A calibration phantom containing air, water, and hydroxyapatite (SB3: Gamex RMI, Middleton, Wis., USA) was included in all scans to adjust for the variability in X-ray attenuation inherent to independent scan sessions.
A representative mid-diaphyseal region of each femoral microCT image was isolated for analysis. […] The analysis region was not restricted by measured size to accommodate variances in bone length. […] The MicroView software was employed to quantify morphological traits.
The microCT images were further processed to quantify the tissue mineral density (TMD) of cortical bone within each sample. […] TMD was calculated by converting the gray-scale values of bone voxels from Hounsfield units (HU) to mineral values (mg/cc of HA) through the use of a calibration phantom containing air, water, and HA (Gamex RMI, Middleton, Wis., USA). […]

## recombinant human N-acetylgalactosamine-4-sulfatase [ERT]
TNF-α and RANKL
  serum RANKL level: significantly reduced
  serum TNF-α level: significantly reduced
MPS VI rats [1]
  time on the rotating bar: 180 s
MPS VI rats [2]; untreated MPS VI 2.8 cm
  distance for the front paw per step: 4.2 cm
MPS VI rats [2]; untreated MPS VI 4.9 cm
  distance the animals moved their rear paws: not changed
MPS VI rats [2]; untreated MPS VI 60°
  angle of the hind paw movement: 45 °
MPS VI rats [3]
  cortical area and relative cortical area: greater

From patent publication US9155784B2, “Anti-TNF-α therapy for the mucopolysaccharidoses and other lysosomal disorders” (Icahn School of Medicine at Mount Sinai, priority 2011, dated 2015)
